The record followed here is patent publication US7981883B2, “Substituted spiro-compounds and the use thereof for producing medicaments” (Gruenenthal GmbH, priority 2005, dated 2011).

Format in all cases: cell-based
Assay [1] has as its target T1, VR1 (rat) (Rattus norvegicus, UniProt O35433).
T1 construct: from tissue; host or cells: primary cells dissociated from rat dorsal root ganglia
The assay can be described thus: Functional FLIPR Ca2+ inflow assay on rat-species vanilloid receptor 1 in rat dorsal root ganglia cells. The conditions noted are these: test compound 10 μM; for inhibition at 10 µM: read-out: VR1 (rat) (% inhibition compared to 10 μM CP); for activation at 10 µM: read-out: VR1 (rat) (% stimulation compared to 10 μM CP). From the text:
I. Functional Testing Carried Out on the Vanilloid Receptor 1 (VR1/TRPV1 Receptor)
The agonistic or antagonistic effect of the substances to be tested can be determined on the rat-species vanilloid receptor 1 (VR1/TRPV1) using the following assay. According to this assay, the Ca^2+ inflow is quantified through the receptor channel using a Ca^2+-sensitive dye (type Fluo-4, Molecular Probes Europe BV, Leiden, Netherlands) in a fluorescent imaging plate reader (FLIPR, Molecular Devices, Sunnyvale, USA).
Complete medium: 50 mL HAMS F12 nutrient mixture (Gibco Invitrogen GmbH, Karlsruhe, Germany) with
10% by volume of FCS (foetal calf serum, Gibco Invitrogen GmbH, Karlsruhe, Germany, […]);
2 mM L-glutamine (Sigma, Munich, Germany);
1% by weight of AA solution (antibiotic/antimyotic solution, PAA, Pasching, Austria) and 25 ng/ml NGF medium (2.5 S, Gibco Invitrogen GmbH, Karlsruhe, Germany)
Cell culture plate: Poly-D-lysine-coated, black 96 well plates having a clear base (96 well black/clear plate, BD Biosciences, Heidelberg, Germany) were additionally coated with laminin (Gibco Invitrogen GmbH, Karlsruhe, Germany), the laminin being diluted with PBS (Ca—Mg-free PBS, Gibco Invitrogen GmbH, Karlsruhe, Germany) to a concentration of 100 μg/mL. Aliquots having a laminin concentration of 100 μg/mL were removed and stored at −20° C. The aliquots were diluted with PBS in a ratio of 1:10 to 10 μg/mL laminin and in each case 50 μL of the solution were pipetted into a recess in the cell culture plate. The cell culture plates were incubated for at least two hours at 37° C., the excess solution was removed by suction-filtration and the recesses were each washed twice with PBS. The coated cell culture plates were stored with excess PBS which was not removed until just before the feeding of the cells.
The vertebral column was removed from decapitated rats and placed immediately into cold HBSS buffer (Hank's buffered saline solution, Gibco Invitrogen GmbH, Karlsruhe, Germany), i.e. buffer located in an ice bath, mixed with 1% by volume (percent by volume) of an AA solution (antibiotic/antimyotic solution, PAA, Pasching, Austria). The vertebral column was cut longitudinally and removed together with fasciae from the vertebral canal. Subsequently, the dorsal root ganglia (DRG) were removed and again stored in cold HBSS buffer mixed with 1% by volume of an AA solution. The DRG, from which all blood remnants and spinal nerves had been removed, were transferred in each case to 500 μL of cold type 2 collagenase (PAA, Pasching, Austria) and incubated for 35 minutes at 37° C. After the addition of 2.5% by volume of trypsin (PAA, Pasching, Austria), incubation was continued for 10 minutes at 37° C. After complete incubation, the enzyme solution was carefully pipetted off and 500 μL of complete medium were added to each of the remaining DRG. The DRG were in each case suspended several times, drawn through cannulae No. 1, No. 12 and No. 16 using a syringe and transferred to a 50 mL Falcon tube which was filled up to 15 mL with complete medium. The contents of each Falcon tube was in each case filtered through a 70 μm Falcon filter element and centrifuged for 10 minutes at 1,200 rpm and room temperature. The resulting pellet was in each case taken up in 250 μL of complete medium and the number of cells determined.
The number of cells in the suspension was set to 3×10^5 per mL and 150 μL of this suspension were in each case introduced into a recess in the cell culture plates coated as described hereinbefore. In the incubator the plates were left for two to three days at 37° C., 5% by volume of CO2 and 95% relative humidity. […]

Assay [2] addresses T1, VR1 (rat). Described as above. The conditions noted are these: against capsaicin (CAP).
The target in assay [3] is T2, VR1 (human) (Homo sapiens, UniProt Q8NER1).
T2 construct: expressed in transfected cells; host or cells: CHO K1 cells (ECACC)
The assay can be described thus: Functional FLIPR Ca2+ inflow assay on VR1 (human), CHO K1 cells stably transfected with the VR1 gene. The conditions noted are these: against capsaicin (CAP).

Assay [4] addresses T2, VR1 (human). Described as above. The conditions noted are these: test compound 10 μM; for inhibition at 10 µM / activation at 10 µM: CHO-K1; for inhibition at 10 µM: read-out: VR1 (human) (% inhibition compared to 10 μM CP); for activation at 10 µM: read-out: VR1 (human) (% stimulation compared to 10 μM CP). From the text:
II. Functional Testing Carried Out on the Vanilloid Receptor (VR1)
The agonistic or antagonistic effect of the substances to be tested can also be determined on the vanilloid receptor (VR1) using the following assay. According to this assay, the Ca^2+ inflow is quantified through the channel using a Ca^2+-sensitive dye (type Fluo-4, Molecular Probes Europe BV, Leiden, Netherlands) in a fluorescent imaging plate reader (FLIPR, Molecular Devices, Sunnyvale, USA).
Chinese hamster ovary cells (CHO K1 cells, European Collection of Cell Cultures (ECACC) United Kingdom) were stably transfected with the VR1 gene. For functional testing, these cells were plated out on poly-D-lysine-coated black 96 well plates having a clear base (BD Biosciences, Heidelberg, Germany) at a density of 25,000 cells/well. The cells were incubated overnight at 37° C. and 5% CO2 in a culture medium (Ham's F12 nutrient mixture, 10% by volume of FCS (foetal calf serum), 18 μg/ml L-proline). The next day the cells were incubated with Fluo-4 (Fluo-4 2 μM, 0.01% by volume of Pluronic F127, Molecular Probes in HBSS (Hank's buffered saline solution), Gibco Invitrogen GmbH, Karlsruhe, Germany) for 30 minutes at 37° C. Subsequently, the plates were washed three times with HBSS buffer and after further incubation for 15 minutes at room temperature used for Ca^2+ measurement in a FLIPR assay. The Ca^2+-dependent fluorescence was measured before and after the addition of the substances to be tested (λex wavelength=488 nm, λem=540 nm). Quantification was carried out by measuring the highest fluorescence intensity (FC, Fluorescence Counts) over time.
The FLIPR protocol consists of 2 substance additions. First the compounds to be tested (10 μM) were pipetted onto the cells and the Ca^2+ inflow was compared with the control (capsaicin 10 μM) (% activation based on the Ca^2+ signal after the addition of 10 μM capsaicin). After 5 minutes' incubation, 100 nM of capsaicin were administered and the Ca^2+ inflow was also determined.
Desensitising agonists and antagonists led to suppression of the Ca^2+ inflow. The % inhibition was calculated compared to the maximum achievable inhibition with 10 μM of capsaicin.

[5] abbreviates: then 100 nM capsaicin after 5 min, relative to maximum inhibition with 10 μM capsaicin.
[6] abbreviates: Ca2+ signal relative to 10 μM capsaicin (CP).

The inhibition is the relative decrease from the control value, in per cent. A word on the IC50: it is the concentration that inhibits the measured activity by half. Low values mean greater potency, high ones weaker potency. Usually Ki stands for a dissociation constant, usually derived from enzyme kinetics or from competition with a known ligand. A higher Ki goes with weaker binding.

T1 sequence (O35433 whole entry): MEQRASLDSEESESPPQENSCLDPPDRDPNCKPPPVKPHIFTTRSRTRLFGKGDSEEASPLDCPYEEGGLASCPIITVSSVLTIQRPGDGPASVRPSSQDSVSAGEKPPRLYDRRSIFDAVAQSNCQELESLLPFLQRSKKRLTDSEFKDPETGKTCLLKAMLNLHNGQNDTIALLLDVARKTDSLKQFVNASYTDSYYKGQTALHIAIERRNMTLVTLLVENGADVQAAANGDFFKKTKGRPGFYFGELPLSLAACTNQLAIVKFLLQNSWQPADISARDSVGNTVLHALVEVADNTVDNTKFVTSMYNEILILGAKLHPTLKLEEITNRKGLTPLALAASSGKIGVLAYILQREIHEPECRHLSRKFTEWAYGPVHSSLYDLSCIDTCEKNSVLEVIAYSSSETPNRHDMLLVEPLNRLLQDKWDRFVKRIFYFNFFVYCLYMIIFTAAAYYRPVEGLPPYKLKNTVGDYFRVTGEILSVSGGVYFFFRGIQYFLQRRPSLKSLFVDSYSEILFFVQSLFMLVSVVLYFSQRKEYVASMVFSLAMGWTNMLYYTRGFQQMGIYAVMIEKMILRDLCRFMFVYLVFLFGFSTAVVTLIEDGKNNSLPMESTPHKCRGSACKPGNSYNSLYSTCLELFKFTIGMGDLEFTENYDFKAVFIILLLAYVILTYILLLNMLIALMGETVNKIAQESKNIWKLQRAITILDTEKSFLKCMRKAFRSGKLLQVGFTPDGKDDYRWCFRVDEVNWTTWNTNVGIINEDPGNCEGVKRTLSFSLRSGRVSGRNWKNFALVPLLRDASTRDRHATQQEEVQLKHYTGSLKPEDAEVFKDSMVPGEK
T2 sequence (Q8NER1 whole entry): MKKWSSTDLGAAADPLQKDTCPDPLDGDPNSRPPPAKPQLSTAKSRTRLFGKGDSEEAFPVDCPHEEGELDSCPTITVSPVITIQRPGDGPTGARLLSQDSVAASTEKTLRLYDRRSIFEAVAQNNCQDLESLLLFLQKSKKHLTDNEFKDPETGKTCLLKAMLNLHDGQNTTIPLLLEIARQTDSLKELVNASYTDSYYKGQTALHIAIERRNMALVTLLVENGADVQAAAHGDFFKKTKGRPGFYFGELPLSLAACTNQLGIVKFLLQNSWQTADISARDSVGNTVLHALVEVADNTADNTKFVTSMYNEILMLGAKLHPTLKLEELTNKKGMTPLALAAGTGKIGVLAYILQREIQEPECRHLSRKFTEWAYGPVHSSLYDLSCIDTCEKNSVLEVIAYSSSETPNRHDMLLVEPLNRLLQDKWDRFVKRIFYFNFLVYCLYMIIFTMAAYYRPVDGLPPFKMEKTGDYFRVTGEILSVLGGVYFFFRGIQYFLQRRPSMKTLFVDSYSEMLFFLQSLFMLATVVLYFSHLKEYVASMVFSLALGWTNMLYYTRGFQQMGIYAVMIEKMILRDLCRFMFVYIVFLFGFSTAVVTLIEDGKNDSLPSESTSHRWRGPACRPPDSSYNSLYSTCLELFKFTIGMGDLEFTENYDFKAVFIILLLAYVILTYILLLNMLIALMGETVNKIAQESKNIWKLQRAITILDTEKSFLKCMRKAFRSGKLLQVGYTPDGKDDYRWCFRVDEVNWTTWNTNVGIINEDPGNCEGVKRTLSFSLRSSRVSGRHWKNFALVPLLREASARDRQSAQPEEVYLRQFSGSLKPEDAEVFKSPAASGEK

Regarding `CC(C)(C)[C@H]1CC[C@@]2(CC1)CC(C(=O)NCc1ccc(NS(C)(=O)=O)c(F)c1)=NO2` [Example 7, cis-8-tert-butyl-1-oxa-2-azaspiro[4.5]dec-2-ene-3-carboxylic acid-3-fluoro-4-methanesulphonylaminobenzylamide], the values for the inhibition at 10 µM on VR1 (rat) [1] (setting [5]) and at VR1 (human) [4] (setting [5]) were 105% and 92.8%, respectively. Also, the activation at 10 µM on VR1 (rat) [1] (setting [6]) is 0.23%; on VR1 (human) [4] (setting [6]) it was -0.05%. Also, the values for the IC50 against VR1 (rat) [2] and on VR1 (human) [3] were 126 nM and 1240 nM, respectively. The values for the Ki at VR1 (rat) [2] and at VR1 (human) [3] were 79.7 nM and 1990 nM, respectively.
In the case of `CC(C)(C)[C@H]1CC[C@@]2(CC1)CC(C(=O)N1CCN(c3ncccc3C(F)(F)F)CC1)=NO2` [Example 9, cis-(8-tert-butyl-1-oxa-2-azaspiro[4.5]dec-2-en-3-yl)-[4-(3-trifluoromethylpyridin-2-yl)piperazin-1-yl]methanone], the “VR1 (rat) (% inhibition compared to 10 μM CP)” value on VR1 (rat) [1] (setting [5]) came out at 91.46%. Moreover, the “VR1 (rat) (% stimulation compared to 10 μM CP)” value on VR1 (rat) [1] (setting [6]) turned out to be 1.05%. Also, at VR1 (rat) [2], the IC50 was determined as 1550 nM and the Ki worked out at 894 nM. At VR1 (human) [3], the IC50 stood at 3340 nM and the Ki came out at 4860 nM. The “VR1 (human) (% inhibition compared to 10 μM CP)” value at VR1 (human) [4] (setting [5]) is given as 61.74%. In addition, the “VR1 (human) (% stimulation compared to 10 μM CP)” value at VR1 (human) [4] (setting [6]) is 0.41%.
With `CCC(C)(C)C1CCC2(CC1)CC(C(=O)NCc1ccc(NS(C)(=O)=O)c(F)c1)=NO2` (stereo not drawn) [Example 80, N-(3-fluoro-4-(methylsulphonamido)benzyl)-8-tert-pentyl-1-oxa-2-azaspiro[4.5]dec-2-ene-3-carboxamide], the inhibition at 10 µM was 103% at VR1 (rat) [1] (setting [5]) and 42% on VR1 (human) [4] (setting [5]). The activation at 10 µM at VR1 (rat) [1] (setting [6]) amounted to 48%; on VR1 (human) [4] (setting [6]), 35%. Besides, the IC50 on VR1 (rat) [2] was 1220 nM; against VR1 (human) [3], 2870 nM. In addition, the Ki at VR1 (rat) [2] came out at 341 nM; on VR1 (human) [3], 2050 nM.
